Measurements published in patent publication US20030008925A1, “Treatment of drug-induced sleepiness” (priority 1997, published 2003).

Legend:
Assay type in all cases: in vivo, human
[1] = tested on: patient under morphine treatment; assay: Pain rating on the EVA scale in patients
Source text: (§1) In order to illustrate the invention, but without limiting its scope, the results of observations made confidentially on patients in the context of hospitalization are reported below. The consent of the patients was obtained after the compassionate grounds of the prescription had been explained to them.

[2] = tested on: patient under morphine treatment; assay: Sleepiness evaluated on the Epworth scale in hospitalized patients under morphine treatment
Source text: the Epworth scale, while ensuring the analgesic properties of morphine and the properties of antidepressant, anxiolytic or analgesic medicaments are maintained. The patient is thus re-established in a satisfactory relational life.
as §1

[3] = Body weight (nutritional recovery) of patient; settings: Case 1; in 10 days, under Moscontin plus Modiodal 200 mg
Protocol: Given the progression of painful phenomena, at the end of October 1997 the patient is hospitalized. At this point in time the dosage of Moscontin® is 100 mg twice every 24 hours, their EVA score is 60, and their sleepiness evaluated on the Epworth scale is 20. The Moscontin® is increased to 160 mg twice every 24 hours. After stabilization of the analgesic level at an EVA score of 30, treatment with Modiodal®, initially in a dosage of 100 mg and then rapidly 200 mg, is initiated. This dosage allows their Epworth score to drop below 10. This quality of awakening has enabled them to resume family relationships of a better quality. The efficacy of the analgesia and their better vigilance level has enabled them to take accompanied walks. A nutritional recovery manifesting itself by a weight increase of 2 kg in 10 days is also to be noted in this patient.

[4] = Case 5, morphine treatment at home (oral)
[5] = Case 2, Skenan doses doubled combined with 200 mg Modiodal

With `CN1CC[C@]23c4c5ccc(O)c4O[C@H]2[C@@H](O)C=C[C@H]3[C@H]1C5` [morphine] the “pain rating on the EVA scale” value ([1]; Case 3, continuous subcutaneous morphine combined with oral clonazepam) was 30, the EVA [1, 4] was 40 and the “state of sleepiness on the Epworth scale” value ([2]; Case 3, morphine 40 mg subcutaneous, before Modiodal) was 20. For the same compound, the “sleepiness (in words)” value [2, 4] was “severe sleepiness” and the “sleepiness index before modafinil” value ([2]; Case 5, under morphine, before modafinil) was 22.
With `O=C(C[S+]([O-])C(c1ccccc1)c1ccccc1)NO` (stereo not drawn) [Olmifon®, benzhydrylsulphinyl-acetohydroxamic acid] the “clinical results (in words)” value ([2]; about 1,200 to 1,800 mg per day, in 2 doses) was “very favourable results”.
With `NC(=O)C[S+]([O-])C(c1ccccc1)c1ccccc1` (stereo not drawn) [Modiodal®, benzhydrylsulphinyl-acetamide] the “EVA (analgesic level)” value [1, 5] was 20, the Epworth score ([2]; Case 1, Modiodal 100 mg then 200 mg, with Moscontin 160 mg twice every 24 hours) was “below 10” and the “vigilance level rating (Epworth)” value [2, 5] was “less than 10”. For the same compound, the “state of vigilance rating (Epworth)” value ([2]; Case 3, Modiodal 100 mg then 200 mg, with morphine 40 mg subcutaneous) was 12, the “sleepiness index after modafinil” value ([2]; Case 4, modafinil 300 mg achieved progressively, with Moscontin 100 mg x2) was 11 and the “sleepiness index after modafinil” value ([2]; Case 5, modafinil 200 mg per day, with morphine 40 mg subcutaneous) was 15. For the same compound, the “clinical results (in words)” value ([2]; about 200 to 400 mg per day, in 1 or 2 doses) was “very favourable results”, the “effect on morphine sleepiness and that associated with clonazepam (in words)” value ([2]; summary of pilot cases 1 to 5) was “efficacy” and the weight increase [3] was 2 kg.
